Reference: patent publication US6706663B2, “Herbicidal 3-heterocyclic substituted benzisothiazole and benzisoxazole compounds” (Wyeth, priority 2000, dated 2004)

Tests used:
[1] = test system: SAGPY (Sagittaria pygmaea); test: Flooded paddy, preemergence weed control; assay type: in vivo, L.; conditions: rated 3-4 weeks after treatment, 0-9 rating scale
Summary of the method: (§1)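 Scoring used a 0-9 visual scale relative to control. Before that, seeds or propagules were planted shallowly in silt loam and flooded to 1.5–3 cm, a depth maintained throughout, with greenhouse care during the test.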

[2] = test system: IPOHE (Ipomoea hederacea); test: Postemergence herbicidal evaluation; assay type: in vivo, (L.) Jacq.
Summary of the method: (§2)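 Visual 0–9 injury scores versus control plants, covering stand, vigour, malformation, size, chlorosis and general appearance, taken four to five weeks post-spray and averaged over replicate tests. Plants were sprayed at roughly two weeks old and held on greenhouse benches.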

ORYSAT (Rice, Tebonnet) [3] = test: Postemergence herbicidal evaluation; assay type: in vivo, Oryza sativa, (L.) Tebonnet
Summary of the method: as §2

[4] = test system: CASOB (Cassia obtusifolia); test: Preemergence herbicidal evaluation; assay type: in vivo, L.; conditions: preemergence, rated 4-5 weeks after treatment
Summary of the method: (§3)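 Visual 0-9 rating versus untreated control, taken four to five weeks post-treatment, scoring stand, vigor, malformation, size, chlorosis and overall appearance. Compound applied as aqueous acetone spray to freshly seeded soil cups, then kept under standard greenhouse care.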

[5] = test system: CHEAL (Chenopodium album); test: Preemergence herbicidal evaluation; assay type: in vivo, L.; conditions: preemergence, rated 4-5 weeks after treatment
Summary of the method: as §3

[6] = test system: AMBEL (Ambrosia artemisifolia); test: Preemergence herbicidal evaluation; assay type: in vivo, L.; conditions: preemergence, rated 4-5 weeks after treatment
Summary of the method: as §3

[7] = test system: ABUTH (Abutilon theophrasti); test: Postemergence herbicidal evaluation; assay type: in vivo, Medic.
Summary of the method: as §2

[8] = test system: TRZAWR (Wheat, Winter, cv Riband); test: Preemergence herbicidal evaluation; assay type: in vivo, Triticum aestivum; conditions: preemergence, rated 4-5 weeks after treatment
Summary of the method: as §3

[9] = test system: CASOB (Cassia obtusifolia); test: Postemergence herbicidal evaluation; assay type: in vivo, L.
Summary of the method: as §2

[10] = test system: CHEAL (Chenopodium album); test: Postemergence herbicidal evaluation; assay type: in vivo, L.
Summary of the method: as §2

[11] = test system: AMBEL (Ambrosia artemisifolia); test: Postemergence herbicidal evaluation; assay type: in vivo, L.
Summary of the method: as §2

[12] = test system: ECHCG (Echinochloa crus-galli); test: Postemergence herbicidal evaluation; assay type: in vivo, (L.) Beau
Summary of the method: as §2

ORYSAT (Rice, Tebonnet) [13] = test: Flooded paddy, post-transplant rice tolerance; assay type: in vivo, Oryza sativa, (L.) Tebonnet; conditions: flooded paddy, post-transplant rice, rated 3-4 weeks after treatment, 0-9 rating scale
Summary of the method: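 Seedlings aged ten days are transplanted in pairs into undrained pots of silt loam, which are then flooded to a depth of 1.5 to 3 cm. After herbicide application the pots are kept in a greenhouse with the flood maintained. Plants are rated 0-9 by visual comparison with controls.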

ZEAMX (Corn, Field) = test: Postemergence herbicidal evaluation; assay type: in vivo, Zea mays, L.
Summary of the method: as §2

[14] = test system: ABUTH (Abutilon theophrasti); test: Preemergence herbicidal evaluation; assay type: in vivo, Medic.; conditions: preemergence, rated 4-5 weeks after treatment
[15] = test system: ECHORC (Echinochloa oryzoides); test: Flooded paddy, preemergence weed control; assay type: in vivo, Echinochloa oryzoides (Ard.) Fritsch.; conditions: rated 3-4 weeks after treatment, 0-9 rating scale
Summary of the method: as §1

[16] = test system: TRZAWR (Wheat, Winter, cv Riband); test: Postemergence herbicidal evaluation; assay type: in vivo, Triticum aestivum
Summary of the method: as §2

ORYSAT (Rice, Tebonnet) [17] = test: Preemergence herbicidal evaluation; assay type: in vivo, Oryza sativa, (L.) Tebonnet; conditions: preemergence, rated 4-5 weeks after treatment

Cn1c(C(F)(F)F)cc(=O)n(-c2ccc3snc(-c4ccccn4)c3c2)c1=O [Compound 9, 1-methyl-3-[3-(2-pyridyl)-1,2-benzisothiazol-5-yl]-6-(trifluoromethyl)uracil]
herbicidal rating, SAGPY ([1]; rate 0.0080 kg/ha): 0.0 | herbicidal rating, SAGPY ([1]; rate 0.0320 kg/ha): 3.0 | herbicidal rating, SAGPY ([1]; rate 0.1250 kg/ha): 9.0 | Postemergence herbicidal rating, IPOHE ([2]; rate 0.0320 kg/ha): 9.0 | Postemergence herbicidal rating, IPOHE ([2]; rate 0.0620 kg/ha): 9.0 | Postemergence herbicidal rating, IPOHE ([2]; rate 0.1250 kg/ha): 9.0 | Postemergence herbicidal rating, ORYSAT (ORYSAT (Rice, Tebonnet) [3]; rate 0.0320 kg/ha): 3.8 | Postemergence herbicidal rating, ORYSAT (ORYSAT (Rice, Tebonnet) [3]; rate 0.0620 kg/ha): 4.3 | Postemergence herbicidal rating, ORYSAT (ORYSAT (Rice, Tebonnet) [3]; rate 0.1250 kg/ha): 3.0 | CASOB preemergence herbicidal rating ([4]; Rate 0.0620 kg/ha): 1.0 | CASOB preemergence herbicidal rating ([4]; Rate 0.1250 kg/ha): 2.7 | CASOB preemergence herbicidal rating ([4]; Rate 0.2500 kg/ha): 6.3 | CHEAL preemergence herbicidal rating ([5]; Rate 0.0620 kg/ha): 9.0 | CHEAL preemergence herbicidal rating ([5]; Rate 0.1250 kg/ha): 9.0 | CHEAL preemergence herbicidal rating ([5]; Rate 0.2500 kg/ha): 9.0 | AMBEL preemergence herbicidal rating ([6]; Rate 0.0620 kg/ha): 6.3 | AMBEL preemergence herbicidal rating ([6]; Rate 0.1250 kg/ha): 9.0 | AMBEL preemergence herbicidal rating ([6]; Rate 0.2500 kg/ha): 9.0 | Postemergence herbicidal rating, ABUTH ([7]; rate 0.0320 kg/ha): 9.0 | Postemergence herbicidal rating, ABUTH ([7]; rate 0.0620 kg/ha): 9.0 | Postemergence herbicidal rating, ABUTH ([7]; rate 0.1250 kg/ha): 9.0 | TRZAWR preemergence herbicidal rating ([8]; Rate 0.0620 kg/ha): 5.5 | TRZAWR preemergence herbicidal rating ([8]; Rate 0.1250 kg/ha): 7.5 | TRZAWR preemergence herbicidal rating ([8]; Rate 0.2500 kg/ha): 8.5 | Postemergence herbicidal rating, CASOB ([9]; rate 0.0320 kg/ha): 6.5 | Postemergence herbicidal rating, CASOB ([9]; rate 0.0620 kg/ha): 8.0 | Postemergence herbicidal rating, CASOB ([9]; rate 0.1250 kg/ha): 9.0 | Postemergence herbicidal rating, CHEAL ([10]; rate 0.0320 kg/ha): 9.0 | Postemergence herbicidal rating, CHEAL ([10]; rate 0.0620 kg/ha): 9.0 | Postemergence herbicidal rating, CHEAL ([10]; rate 0.1250 kg/ha): 9.0 | Postemergence herbicidal rating, AMBEL ([11]; rate 0.0320 kg/ha): 9.0 | Postemergence herbicidal rating, AMBEL ([11]; rate 0.0620 kg/ha): 9.0 | Postemergence herbicidal rating, AMBEL ([11]; rate 0.1250 kg/ha): 9.0 | Postemergence herbicidal rating, ECHCG ([12]; rate 0.0320 kg/ha): 1.0 | Postemergence herbicidal rating, ECHCG ([12]; rate 0.0620 kg/ha): 2.0 | Postemergence herbicidal rating, ECHCG ([12]; rate 0.1250 kg/ha): 8.0 | herbicidal rating, ORYSAT (rice tolerance) (ORYSAT (Rice, Tebonnet) [13]; rate 0.0080 kg/ha): 4.0 | herbicidal rating, ORYSAT (rice tolerance) (ORYSAT (Rice, Tebonnet) [13]; rate 0.0320 kg/ha): 3.0 | herbicidal rating, ORYSAT (rice tolerance) (ORYSAT (Rice, Tebonnet) [13]; rate 0.1250 kg/ha): 6.0 | Postemergence herbicidal rating, ZEAMX (ZEAMX (Corn, Field); rate 0.0320 kg/ha): 5.3 | Postemergence herbicidal rating, ZEAMX (ZEAMX (Corn, Field); rate 0.0620 kg/ha): 5.8 | Postemergence herbicidal rating, ZEAMX (ZEAMX (Corn, Field); rate 0.1250 kg/ha): 5.5 | ABUTH preemergence herbicidal rating ([14]; Rate 0.0620 kg/ha): 9.0 | ABUTH preemergence herbicidal rating ([14]; Rate 0.1250 kg/ha): 9.0 | ABUTH preemergence herbicidal rating ([14]; Rate 0.2500 kg/ha): 9.0 | herbicidal rating, ECHORC ([15]; rate 0.0080 kg/ha): 4.0 | herbicidal rating, ECHORC ([15]; rate 0.0320 kg/ha): 7.0 | herbicidal rating, ECHORC ([15]; rate 0.1250 kg/ha): 9.0 | Postemergence herbicidal rating, TRZAWR ([16]; rate 0.0320 kg/ha): 4.0 | Postemergence herbicidal rating, TRZAWR ([16]; rate 0.0620 kg/ha): 4.5 | Postemergence herbicidal rating, TRZAWR ([16]; rate 0.1250 kg/ha): 6.0 | ORYSAT preemergence herbicidal rating (ORYSAT (Rice, Tebonnet) [17]; Rate 0.0620 kg/ha): 4.3 | ORYSAT preemergence herbicidal rating (ORYSAT (Rice, Tebonnet) [17]; Rate 0.1250 kg/ha): 6.7 | ORYSAT preemergence herbicidal rating (ORYSAT (Rice, Tebonnet) [17]; Rate 0.2500 kg/ha): 8.0
